Measurements: patent US20220388957A1, “COMPOUNDS AND COMPOSITIONS FOR TREATING CONDITIONS ASSOCIATED WITH STING ACTIVITY” (IFM Due, Inc., priority 2019, published 2022)

Target: T1, Human STING (Homo sapiens, UniProt Q86WV6, G230A/H232R/R293Q/R71H)
T1 construct: host or cells: THP1-Dual KO-IFNAR2 cells (human monocytic reporter line)
Experiment: STING reporter assay (luciferase) in THP1-Dual KO-IFNAR2 cells stimulated with 2′3′cGAMP
Assay type: cell-based
Conditions: 2′3′cGAMP 15 μM, 24 h
Protocol: STING pathway activation by the compounds described herein was measured using THP1-Dual™ cells (KO-IFNAR2).
THP1-Dual™ KO-IFNAR2 Cells (obtained from invivogen) were maintained in RPMI, 10% FCS, 5 ml P/S, 2 mM L-glut, 10 mM Hepes, and 1 mM sodium pyruvate. Compounds were spotted in empty 384 well tissue culture plates (Greiner 781182) by Echo for a final concentration of 0.0017-100 μM. Cells were plated into the TC plates at […], 2×10E6 cells/mL. For activation with STING ligand, 2′3′cGAMP (MW 718.38, obtained from Invivogen), was prepared in Optimem media.
The following solutions were prepared for each 1×384 plate: • o Solution A: 2 mL Optimem with one of the following stimuli: • 60 uL of 10 mM 2′3′cGAMP->150 μM stock • Solution B: 2 mL Optimem with 60 μL Lipofectamine 2000->Incubate 5 min at RT
2 mL of solution A and 2 ml Solution B was mixed and incubated for 20 min at room temperature (RT). 20 μL of transfection solution (A+B) was added on top of the plated cells, with a final 2′3′cGAMP concentration of 15 μM. The plates were then centrifuged immediately at 340 g for 1 minute, after which they were incubated at 37° C., 5% CO2, >98% humidity for 24 h. Luciferase reporter activity was then measured. EC50 values were calculated by using standard methods known in the art.
Luciferase reporter assay: 10 μL of supernatant from the assay was transferred to white 384-plate with flat bottom and squared wells. One pouch of QUANTI-Luc™ Plus was dissolved in 25 mL of water. 100 μL of QLC Stabilizer per 25 mL of QUANTI-Luc™ Plus solution was added. 50 μL of QUANTI-Luc™ Plus/QLC solution per well was then added. Luminescence was measured on a Platereader (e.g., Spectramax I3X (Molecular Devices GF3637001)).
Luciferase reporter activity was then measured. EC50 values were calculated by using standard methods known in the art.

T1 sequence (Q86WV6 whole entry R71H/G230A/H232R/R293Q): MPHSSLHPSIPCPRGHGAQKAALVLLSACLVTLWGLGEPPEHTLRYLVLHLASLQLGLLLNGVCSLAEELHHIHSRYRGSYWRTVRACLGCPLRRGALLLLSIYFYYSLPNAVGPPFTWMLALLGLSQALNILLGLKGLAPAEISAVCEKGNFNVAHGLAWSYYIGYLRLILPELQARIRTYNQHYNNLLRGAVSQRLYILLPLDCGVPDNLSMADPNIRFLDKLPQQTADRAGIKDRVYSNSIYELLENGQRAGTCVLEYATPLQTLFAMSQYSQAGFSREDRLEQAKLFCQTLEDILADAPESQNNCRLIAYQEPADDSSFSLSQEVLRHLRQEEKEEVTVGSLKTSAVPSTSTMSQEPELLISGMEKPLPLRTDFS

EC50 (class symbols)	EC50 (numeric bound)	Compound
5 to 100 µM		O=S(=O)(Cc1cccc(C(F)(F)F)c1)Nc1c[nH]c2cc(F)c(F)cc12 [Compound 131, N-(5,6-difluoro-1H-indol-3-yl)-1-(3-(trifluoromethyl)phenyl) methanesulfonamide]
	> 100 µM	CC1CNCCC1NS(=O)(=O)c1c[nH]c2nccc(Cl)c12 (stereo not shown) [Compound 112]
5 to 100 µM		O=S(=O)(Nc1c[nH]c2cc(F)c(F)cc12)c1ccc2c(c1)CCC2 [Compound 135, N-(5,6-difluoro-1H-indol-3-yl)-2,3-dihydro-1H-indene-5-sulfonamide]
5 to 100 µM		O=S(=O)(Nc1c[nH]c2cc(F)c(F)cc12)c1ccc2c(c1)CCCC2 [Compound 139, N-(5,6-difluoro-1H-indol-3-yl)-5,6,7,8-tetrahydro-naphthalene-2-sulfonamide]
5 to 100 µM		O=S(=O)(Nc1c[nH]nc1-c1ccccc1)c1ccc(C(F)(F)F)cc1 [Compound 106]
1 to 5 µM		CCCCCCCCS(=O)(=O)Nc1c[nH]c2cc(F)c(F)cc12 [Compound 128, N-(5,6-difluoro-1H-indol-3-yl)octane-1-sulfonamide]
5 to 100 µM		CC(C)c1ccc(S(=O)(=O)Nc2c[nH]c3cc(F)c(F)cc23)cc1 [Compound 141, N-(5,6-difluoro-1H-indol-3-yl)-4-isopropylbenzene-sulfonamide]
